Source: US8921414B2, “Spiroketals” (EcoBiotics Ltd, priority 2005, dated 2014)

System: control LCL (lymphoblastoid cells)
Assay: Direct toxicity on control LCL
Assay type: cell-based, human
Conditions: same drug concentrations as MLR (1 μg/mL)
Protocol: Gamma-irradiated lymphoblastoid cells (LCL, Esptein-Barr virus-transformed B-cells; 17,000) were added to human peripheral blood lymphocytes (PBMC; 50,000 per microtitre well), then the drug, incubated at 37 C as above and labeled with [3H]-thymidine on Day 4. Cells were lysed and washed onto glass fibre mats for scintillation counting. The same drug concentrations were tested for direct toxicity by assay on control LCL (10,000 cells/well).

CCCCCCCCCCCCCC(O)CC1CC(O)CC2(CC3OC(=O)C=CC3O2)O1 (stereo not shown) [EBI-23]
growth of control LCLs: unaffected
